Data reported in US20130296393A1, “METHOD FOR CONTROLLING CLUBROOT” (ISHIHARA SANGYO KAISHA, LTD., priority 2011, published 2013).

Legend:
Type in all cases: in vivo
Plasmodiophora brassicae [1] = experiment: Cabbage clubroot control test, pot test, cyazofamid vs chlorothalonil (Example 3 / Comparative Example 3); parameters: key to Disease control value: control value = (1 − treated/control severity) × 100; key to Disease severity: severity = Σ(plants × index 0-4)/(plants × 4) × 100; settings: for Disease control value / Disease severity: 57 days after settled planting
Text: (§1) Disease severity={Σ(number of each index of diseased plants×disease index)/(number of plants surveyed×4)}×100
(§2) Disease control value={1−(treatment disease severity/control disease severity)}×100
(§3) 0: No adhesion of clubroot, 1: clubroot adhesion to lateral root, 2: clubroot adhesion to the entire lateral root or clubroot adhesion to a part of tap root, 3: adhesion of large clubroot to tap root, and 4: clubroot adhesion to the entire tap root.
A spore suspension of Plasmodiophora brassicae (fungus density: 1×10^5 fungi/g dry soil) was inoculated into a sterilization soil adjusted to pH of 6.0 with Sandoseto and after introducing the resulting test soil into a 1/5000 a pot, a cabbage (variety: Okina) seedling grown in a cell seedling tray (128 cells/seedling box) was settled-planted by establishing five plantings for each test section having a size of 0.02 m^2 for one plant. Immediately, 4 days, 7 days and 14 days after settled planting, the chemical solution for spraying prepared by the same method as in Example 1(1) was drenched into the soil in a ratio of 250 ml/plant. Fifty-seven days after the settled planting, the number of each index of clubroot adhesion to the root was investigated. For comparison, the same test was carried out on a control section where a soil drench treatment with the chemical solution for spraying was not applied.
A chemical solution for spraying in a concentration of 800 ppm was prepared by diluting 40% chlorothalonil (Daconil 1000 [trade name], manufactured by SDS K.K.) with water.
The test was carried out by the same procedure as in Example 3 except that the chemical solution (cyazofamid) for spraying was replaced by the chemical solution (chlorothalonil) for spraying prepared in Comparative Example 3(1).
(§4) The disease severity and disease control value of Example 3 and Comparative Example 3 were determined by the same methods as in Example 1 and Comparative Example 1. In addition, the weight of cabbage in the aerial part was measured. Furthermore, the test result was shown by the average value of five plantings.

Plasmodiophora brassicae [2] = experiment: Cabbage clubroot control test, pot test (Example 1 / Comparative Example 1); settings: 0.3% dust formulation 30 kg/10 a soil incorporation just before settled planting
Method: A chemical solution for spraying at 50 ppm was prepared by diluting 9.4% w/w cyazofamid (Ranman [trade name] flowable, manufactured by Ishihara Sangyo Kaisha Ltd.) with water.
A spore suspension of Plasmodiophora brassicae (fungus density: 1×10^5 fungi/g dry soil) was inoculated into a sterilization soil adjusted to pH of 6.2 with Sandoseto and after introducing the resulting test soil into a 1/5000 a pot, a cabbage (variety: Okina) seedling grown in a cell seedling tray (128 cells/seedling box) was settled-planted by establishing five plantings for each test section having a size of 0.02 m^2 per one plant. Just after the settled planting, 3 days, 7 days, 10 days and 14 days after the settled planting, the chemical solution for spraying prepared in (1) was applied by soil drench at a ratio of 250 ml/plant. Sixty days after the settled planting, the number of each index of clubroot adhesion to the root was investigated. For comparison, the same test was carried out on a control section where a soil drench treatment with the chemical solution for spraying was not applied.
(§5) The test was carried out by the same method as in Example 1(2) except that in place of the soil drench treatment with the chemical solution for spraying, 30 kg/10 a of 0.3% flusulfamide (dust formulation of Nebijin [trade name], manufactured by Mitsui Chemicals Agro, Inc.) was applied to the test soil just before settled planting and incorporated into the soil by means of a small mixer (interfusion depth: 15 cm).
In Example 1 and Comparative Example 1, the adhesion of clubroot was investigated by pulling out the root of cabbage. The adhesion of clubroot was investigated by calculating the disease severity using the following formula. In addition, the weight of cabbage in the aerial part was measured. Furthermore, the test result was shown by the average value of five plantings.
as §1, §2, §3

Plasmodiophora brassicae [3] = experiment: Influence of rainfall on clubroot control effect in cabbage (Example 4 / Comparative Example 4); settings: pot; for Weight in the aerial part / Disease control value / Disease severity: 0.3% dust formulation 30 kg/10 a soil incorporation just before settled planting; for Disease control value / Disease severity: 67 days after settled planting
Method: as §1, §2, §3
The test was carried out by the same method as in Example 3 except for preparing an area subjected to a rainfall treatment of 20 mm by means of a rainfall apparatus (a treatment at a rate of 10 mm/hour for 2 hours) the day before treatment, and an area not subjected to the rainfall treatment. Sixty-seven days after the settled planting, the number of each index of clubroot adhesion to the root was investigated. For comparison, the same test was carried out on a control section where a soil drench treatment with the chemical solution for spraying was not applied.
as §5, with “4” for “1(2)”, “before the” for “before”
as §4, with “4” for “3”

[4] = 800 ppm soil drench 250 ml/plant 4 days after settled planting
[5] = 800 ppm soil drench 250 ml/plant 7 days after settled planting
[6] = 800 ppm soil drench 250 ml/plant 14 days after settled planting
[7] = 800 ppm soil drench 250 ml/plant just after settled planting
[8] = 800 ppm soil drench after settled planting
[9] = with rainfall treatment, dust formulation soil incorporation just before settled planting

N#Cc1c(Cl)c(Cl)c(Cl)c(C#N)c1Cl [chlorothalonil]
Weight in the aerial part (Plasmodiophora brassicae [1]; [4]): 92 g | Disease control value (Plasmodiophora brassicae [1]; [4]): 25 | Disease severity (Plasmodiophora brassicae [1]; [4]): 60 | Weight in the aerial part (Plasmodiophora brassicae [1]; [5]): 69 g | Disease control value (Plasmodiophora brassicae [1]; [5]): 0 | Disease severity (Plasmodiophora brassicae [1]; [5]): 90 | Weight in the aerial part (Plasmodiophora brassicae [1]; [6]): 70 g | Disease control value (Plasmodiophora brassicae [1]; [6]): 0 | Disease severity (Plasmodiophora brassicae [1]; [6]): 90 | Weight in the aerial part (Plasmodiophora brassicae [1]; [7]): 96 g | Disease control value (Plasmodiophora brassicae [1]; [7]): 56 | Disease severity (Plasmodiophora brassicae [1]; [7]): 35 | Control effect (Plasmodiophora brassicae [1]; [8]): a control effect which is sufficient for practical use was not obtained | Effect of the disease on weight in the aerial part (Plasmodiophora brassicae [1]; [8]): greatly affected by the disease

O=[N+]([O-])c1ccc(NS(=O)(=O)c2ccc(Cl)c(C(F)(F)F)c2)c(Cl)c1 [flusulfamide]
Weight in the aerial part (Plasmodiophora brassicae [2]): 173 g | Disease control value (Plasmodiophora brassicae [2]; 60 days after settled planting): 100 | Disease severity (Plasmodiophora brassicae [2]; 60 days after settled planting): 0 | Weight in the aerial part (Plasmodiophora brassicae [3]; with rainfall treatment 20 mm): 104 g | Disease control value (Plasmodiophora brassicae [3]; with rainfall treatment 20 mm): 50 | Disease severity (Plasmodiophora brassicae [3]; with rainfall treatment 20 mm): 35 | Control effect (Plasmodiophora brassicae [3]; [9]): a practical control effect was not obtained | Effect of the disease on weight in the aerial part (Plasmodiophora brassicae [3]; [9]): greatly affected by the disease | Weight in the aerial part (Plasmodiophora brassicae [3]; without rainfall treatment): 118 g | Disease control value (Plasmodiophora brassicae [3]; without rainfall treatment): 100 | Disease severity (Plasmodiophora brassicae [3]; without rainfall treatment): 0
